From patent publication US8772319B2 (priority 2004, dated 2014) come the findings set out here.

In data set [1] the target is T1, D3 receptor (Homo sapiens, UniProt P35462).
T1 construct: expressed in transfected cells; host or cells: CHOp- cells (CHOp-D3)
The data set is described as follows: Inhibition of quinpirole-stimulated mitogenesis ([3H]thymidine incorporation), CHOp-D3 cells. The data set is classed as cell-based.

The next data set concerns the target T2, 5-HT2C receptor (Rattus norvegicus, UniProt P08909).
T2 construct: expressed in transfected cells; host or cells: NIH-3T3-P cells
T2 sequence (P08909 33-460): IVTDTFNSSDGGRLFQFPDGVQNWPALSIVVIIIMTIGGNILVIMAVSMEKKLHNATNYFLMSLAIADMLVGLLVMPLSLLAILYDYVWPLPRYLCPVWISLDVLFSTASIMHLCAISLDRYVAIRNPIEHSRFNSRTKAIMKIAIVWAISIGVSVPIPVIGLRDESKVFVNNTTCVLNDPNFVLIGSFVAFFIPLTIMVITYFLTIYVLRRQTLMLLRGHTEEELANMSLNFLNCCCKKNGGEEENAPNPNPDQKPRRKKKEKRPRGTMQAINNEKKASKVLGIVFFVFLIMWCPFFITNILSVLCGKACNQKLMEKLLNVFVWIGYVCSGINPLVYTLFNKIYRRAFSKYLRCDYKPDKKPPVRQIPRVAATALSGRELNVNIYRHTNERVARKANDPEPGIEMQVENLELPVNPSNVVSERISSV
Description: 5-HT2C receptor binding, NIH-3T3-P cells, [3H]mesulergine.

The target in data set [2] is T3, D2 receptor (Homo sapiens, UniProt P14416).
T3 construct: expressed in transfected cells; host or cells: CHOp- cells (CHOp-D2)
T3 sequence (P14416 whole entry): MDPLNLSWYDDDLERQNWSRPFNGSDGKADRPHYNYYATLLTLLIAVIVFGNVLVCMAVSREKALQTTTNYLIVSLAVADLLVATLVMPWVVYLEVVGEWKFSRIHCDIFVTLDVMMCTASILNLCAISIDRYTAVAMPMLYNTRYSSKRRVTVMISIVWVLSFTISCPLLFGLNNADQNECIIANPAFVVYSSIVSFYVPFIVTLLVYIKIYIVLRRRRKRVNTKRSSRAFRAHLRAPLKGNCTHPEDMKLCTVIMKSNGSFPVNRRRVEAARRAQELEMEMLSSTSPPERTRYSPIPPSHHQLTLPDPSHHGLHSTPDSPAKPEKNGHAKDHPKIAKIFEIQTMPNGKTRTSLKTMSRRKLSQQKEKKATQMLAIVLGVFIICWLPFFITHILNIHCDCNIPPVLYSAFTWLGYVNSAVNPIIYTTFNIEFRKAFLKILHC
Description: D2 receptor binding, CHOp- cells, [3H]YM-09151-2.

Data set [3] has as its target T3, D2 receptor. The data set is described as follows: cell-based. As to conditions: read-out: D2 Antagonist activity IC50.
Another data set has as its target T4, 5-HT1A receptor (Homo sapiens, UniProt P08908).
T4 construct: expressed in transfected cells; host or cells: HA7 cells
T4 sequence (P08908 1-422): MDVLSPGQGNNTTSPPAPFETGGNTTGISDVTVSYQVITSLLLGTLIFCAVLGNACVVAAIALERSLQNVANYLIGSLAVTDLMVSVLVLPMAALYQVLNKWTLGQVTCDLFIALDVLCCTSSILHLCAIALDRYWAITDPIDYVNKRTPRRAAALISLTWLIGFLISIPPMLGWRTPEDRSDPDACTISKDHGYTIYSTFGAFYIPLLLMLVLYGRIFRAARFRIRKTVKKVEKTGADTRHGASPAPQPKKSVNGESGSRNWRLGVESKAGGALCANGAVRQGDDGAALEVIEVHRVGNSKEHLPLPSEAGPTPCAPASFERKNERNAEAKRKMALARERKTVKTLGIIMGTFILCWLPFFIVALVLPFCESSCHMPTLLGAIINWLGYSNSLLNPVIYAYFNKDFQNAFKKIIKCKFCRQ
The data set is described as follows: 5-HT1A receptor binding, HA7 cells, [3H]8-OH-DPAT.

In data set [4] the target is T5, human dopamine transporter (hDAT) (Homo sapiens, UniProt Q01959). Description: biochemical. The format is binding. To be noted: for Binding Ratios NET/DAT / Binding Ratios SERT/DAT: Table 5.
T5 sequence (Q01959 whole entry): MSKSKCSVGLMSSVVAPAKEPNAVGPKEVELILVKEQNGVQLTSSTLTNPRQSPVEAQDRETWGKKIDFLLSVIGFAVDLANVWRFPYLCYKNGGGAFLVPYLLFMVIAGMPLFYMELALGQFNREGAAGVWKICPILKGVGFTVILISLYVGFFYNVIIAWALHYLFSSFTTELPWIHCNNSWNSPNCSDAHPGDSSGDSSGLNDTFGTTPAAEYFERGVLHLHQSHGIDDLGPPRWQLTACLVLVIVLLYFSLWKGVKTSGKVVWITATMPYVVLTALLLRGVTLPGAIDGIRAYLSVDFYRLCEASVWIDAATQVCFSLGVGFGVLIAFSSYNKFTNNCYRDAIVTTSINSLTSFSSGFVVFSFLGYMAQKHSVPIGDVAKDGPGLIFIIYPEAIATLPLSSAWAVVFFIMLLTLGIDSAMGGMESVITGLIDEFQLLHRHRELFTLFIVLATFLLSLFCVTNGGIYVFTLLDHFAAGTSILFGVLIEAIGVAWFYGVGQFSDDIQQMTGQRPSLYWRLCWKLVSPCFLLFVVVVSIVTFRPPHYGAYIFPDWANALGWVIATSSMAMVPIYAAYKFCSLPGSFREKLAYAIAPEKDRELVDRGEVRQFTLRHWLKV
A further data set has as its target T6, 5-HT2A receptor (Rattus norvegicus, UniProt P14842).
T6 construct: expressed in transfected cells; host or cells: NIH-3T3-GF6 cells
The data set is described as follows: 5-HT2A receptor binding, NIH-3T3-GF6 cells, [3H]ketanserin.

Another data set addresses T7, D1 receptor (Homo sapiens, UniProt P21728).
T7 construct: expressed in transfected cells; host or cells: LHD1 cells
Description: D1 receptor binding, LHD1 cells, [3H]SCH 23,390.

For data set [5], the target named is T1, D3 receptor. The data set is described as follows: D3 receptor binding, CHOp- cells, [3H]YM-09151-2.
Data set [6] addresses T5, human dopamine transporter (hDAT). Description: cell-based. As to conditions: for Discrimination Ratios (DR) [3H]DA reuptake/DAT binding: Table 6; for IC50: Reuptake Inhibition [3H]DA IC50, Table 6.
The target of data set [7] is T8, human serotonin transporter (hSERT) (Homo sapiens, UniProt P31645). The data set is described as follows: cell-based. As to conditions: Reuptake Inhibition [3H]5-HT IC50, Table 6.
T8 sequence (P31645 whole entry): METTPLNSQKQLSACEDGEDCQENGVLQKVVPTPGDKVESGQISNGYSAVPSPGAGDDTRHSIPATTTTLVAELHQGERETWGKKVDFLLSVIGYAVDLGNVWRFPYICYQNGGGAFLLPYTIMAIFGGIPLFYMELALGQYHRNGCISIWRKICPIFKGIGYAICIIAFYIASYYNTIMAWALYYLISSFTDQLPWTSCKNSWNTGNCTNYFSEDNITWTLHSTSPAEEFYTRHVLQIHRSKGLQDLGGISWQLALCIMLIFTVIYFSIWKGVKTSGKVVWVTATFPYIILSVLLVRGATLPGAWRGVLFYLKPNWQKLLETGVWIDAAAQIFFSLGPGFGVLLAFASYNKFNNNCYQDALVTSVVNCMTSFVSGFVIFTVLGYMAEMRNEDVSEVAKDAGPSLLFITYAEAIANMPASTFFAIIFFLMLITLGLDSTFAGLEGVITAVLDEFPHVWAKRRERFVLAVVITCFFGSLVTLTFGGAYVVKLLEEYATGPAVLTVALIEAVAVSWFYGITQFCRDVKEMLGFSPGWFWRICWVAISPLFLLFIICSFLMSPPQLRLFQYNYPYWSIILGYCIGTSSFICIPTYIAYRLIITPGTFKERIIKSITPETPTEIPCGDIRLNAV
The target of data set [8] is T9, human norepinephrine transporter (hNET) (Homo sapiens, UniProt P23975). The data set is described as follows: cell-based. To be noted: Table 6; read-out: Reuptake Inhibition [3H]NE IC50.
T9 sequence (P23975 whole entry): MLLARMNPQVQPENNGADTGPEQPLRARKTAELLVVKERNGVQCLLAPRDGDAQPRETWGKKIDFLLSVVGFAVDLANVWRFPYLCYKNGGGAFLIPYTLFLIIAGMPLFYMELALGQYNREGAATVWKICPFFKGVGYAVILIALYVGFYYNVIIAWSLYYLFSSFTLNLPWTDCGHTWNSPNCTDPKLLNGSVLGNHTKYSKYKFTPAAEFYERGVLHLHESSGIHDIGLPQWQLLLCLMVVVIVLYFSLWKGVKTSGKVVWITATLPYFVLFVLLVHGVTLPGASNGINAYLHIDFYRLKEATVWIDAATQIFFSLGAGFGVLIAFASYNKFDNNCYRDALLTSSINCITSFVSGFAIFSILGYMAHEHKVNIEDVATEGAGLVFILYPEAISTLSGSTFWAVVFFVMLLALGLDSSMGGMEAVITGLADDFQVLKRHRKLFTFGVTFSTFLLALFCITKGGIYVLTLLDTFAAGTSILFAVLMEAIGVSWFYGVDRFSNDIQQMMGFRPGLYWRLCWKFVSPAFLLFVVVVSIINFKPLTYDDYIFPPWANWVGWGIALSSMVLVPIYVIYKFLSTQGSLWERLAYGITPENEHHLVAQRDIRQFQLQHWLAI
Another data set concerns male Swiss-Webster mice. Description: Cocaine/compound interaction study on locomotor activity. The format is in vivo, mouse. To be noted: 20 mg/kg of cocaine.
For data set [9], the target named is T9, human norepinephrine transporter (hNET). The data set is described as follows: biochemical. To be noted: Table 5; [125I]RTI-55; oxalate salts; read-out: NET binding affinity Ki.
Data set [10] addresses T8, human serotonin transporter (hSERT). The data set is described as follows: biochemical. To be noted: Table 5; [125I]RTI-55; oxalate salts; read-out: SERT binding affinity Ki.
Setting [11] is: Table 7, CHOp- cells, [3H]YM-09151-2, read-out: D2 Affinity Ki.
[12] abbreviates: Table 7, rat receptors, NIH-3T3-GF6 cells, [3H]ketanserin, read-out: 5-HT2A Affinity Ki.
The mark [13] stands for this setting: Table 7, LHD1 cells, [3H]SCH 23,390, read-out: D1 Affinity Ki.
[14] abbreviates: Table 7, CHOp- cells, [3H]YM-09151-2, read-out: D3 Affinity Ki.

Broadly, the melting point is the temperature, or range, at which the solid turns liquid. By IC50 is commonly meant the point on the concentration scale where inhibition reaches its midpoint. Broadly, the Ki is the equilibrium dissociation constant of an inhibitor or competing ligand from its target.

Where a name gives a salt, the structure may show the parent alone. Read-outs that look alike come from different tables or passages of the source. Some results are limits rather than exact numbers.

T7 sequence (P21728 whole entry): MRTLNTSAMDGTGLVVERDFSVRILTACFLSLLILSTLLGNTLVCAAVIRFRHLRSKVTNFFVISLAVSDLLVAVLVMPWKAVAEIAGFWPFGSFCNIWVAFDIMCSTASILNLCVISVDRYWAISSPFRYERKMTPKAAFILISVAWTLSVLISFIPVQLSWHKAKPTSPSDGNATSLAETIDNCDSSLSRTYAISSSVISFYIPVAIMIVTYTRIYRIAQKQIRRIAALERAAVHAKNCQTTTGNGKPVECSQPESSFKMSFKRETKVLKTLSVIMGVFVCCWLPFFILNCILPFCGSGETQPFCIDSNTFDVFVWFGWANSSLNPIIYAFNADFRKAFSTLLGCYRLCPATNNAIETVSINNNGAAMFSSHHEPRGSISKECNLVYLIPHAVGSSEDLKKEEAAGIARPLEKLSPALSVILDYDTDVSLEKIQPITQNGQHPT
T6 sequence (P14842 whole entry): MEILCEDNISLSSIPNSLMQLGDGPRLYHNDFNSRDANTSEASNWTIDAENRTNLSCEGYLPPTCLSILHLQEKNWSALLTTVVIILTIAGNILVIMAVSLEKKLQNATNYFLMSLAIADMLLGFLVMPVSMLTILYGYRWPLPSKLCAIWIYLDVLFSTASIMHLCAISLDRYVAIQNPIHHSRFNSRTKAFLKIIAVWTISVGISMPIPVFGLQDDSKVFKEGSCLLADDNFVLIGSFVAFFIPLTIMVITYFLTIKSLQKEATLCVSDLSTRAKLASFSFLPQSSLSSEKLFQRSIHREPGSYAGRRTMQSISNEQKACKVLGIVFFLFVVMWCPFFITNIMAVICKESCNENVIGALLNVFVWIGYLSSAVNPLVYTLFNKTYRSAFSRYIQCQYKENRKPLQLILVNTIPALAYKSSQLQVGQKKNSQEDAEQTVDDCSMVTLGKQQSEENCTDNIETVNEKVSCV
T1 sequence (P35462 whole entry): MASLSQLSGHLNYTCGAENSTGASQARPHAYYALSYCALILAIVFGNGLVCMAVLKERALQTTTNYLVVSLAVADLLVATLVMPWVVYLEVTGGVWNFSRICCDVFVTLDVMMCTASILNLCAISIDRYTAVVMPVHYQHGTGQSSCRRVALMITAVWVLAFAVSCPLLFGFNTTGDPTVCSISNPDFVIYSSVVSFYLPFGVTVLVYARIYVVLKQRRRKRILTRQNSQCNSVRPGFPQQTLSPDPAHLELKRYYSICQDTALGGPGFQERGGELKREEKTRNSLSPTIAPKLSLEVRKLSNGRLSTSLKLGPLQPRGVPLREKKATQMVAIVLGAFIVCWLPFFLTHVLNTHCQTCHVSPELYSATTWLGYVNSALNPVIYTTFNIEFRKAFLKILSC

With `Fc1ccc(C(OCCCCN2CCN(c3ccc(Cl)cc3)CC2)c2ccc(F)cc2)cc1` (as salt: oxalate) [Compound 34, 1-(4-Chlorophenyl)-4-[4-[bis(4-fluorophenyl)methoxy]butyl]piperazine], the melting point lay within 179 to 181 °C.

`COc1ccccc1N1CCN(CCCCOC(c2ccc(F)cc2)c2ccc(F)cc2)CC1` (as salt: oxalate) [Compound 35, 1-(2-Methoxyphenyl)-4-[4-[bis(4-fluorophenyl)methoxy]butyl]piperazine] showed a melting point of 139 to 142 °C.

The compound `O=[N+]([O-])c1ccc(N2CCN(CCCCOC(c3ccc(F)cc3)c3ccc(F)cc3)CC2)cc1` (as salt: oxalate) [Compound 38, 1-[4-Nitrophenyl]-4-[1-[bis(4-fluorophenyl)methoxy]-4-butyl]piperazine] displayed a melting point of 196 to 198 °C.

The compound `O=C(c1ccccc1)N1CCN(CCCCOC(c2ccc(F)cc2)c2ccc(F)cc2)CC1` (as salt: oxalate) [Compound 40, 1-Benzoyl-4-[1-[bis(4-fluorophenyl)methoxy]-4-butyl]piperazine] had a melting point of 121 to 123 °C.

On to `Fc1ccc(C(OCCCCN2CCN(Cc3ccc4c(c3)OCO4)CC2)c2ccc(F)cc2)cc1` (as salt: oxalate) [Compound 41, 1-Benzo[1,3]dioxol-5-ylmethyl-4-[4-[bis(4-fluorophenyl)methoxy]butyl]piperazine], for which the melting point was in the range of 231 to 234 °C.

`O=[N+]([O-])c1ccc(S(=O)(=O)N2CCN(CCCCOC(c3ccc(F)cc3)c3ccc(F)cc3)CC2)cc1` (as salt: oxalate) [Compound 42, 1-[4-[Bis(4-fluorophenyl)methoxy]butyl]-4-(4-nitrobenzenesulfonyl)piperazine] came in with a melting point of 170 to 173 °C.

As to `Fc1ccc(C(OCCCCN2CCN(c3ccccc3)CC2)c2ccc(F)cc2)cc1` [Compound 29, 1-Phenyl-4-[4-[bis(4-fluorophenyl)methoxy]butyl]piperazine], the values for the IC50 at D3 receptor [1] and on D2 receptor [3] were 44.6 nM and 120 nM, respectively. Also, the Ki is over 10 µM on 5-HT2C receptor (Table 7, bound given in μM, read-out: 5-HT2C Affinity Ki); 447 ± 73.9 nM on D2 receptor [2] (setting [11]); 285 ± 76.4 nM on 5-HT1A receptor; 404 ± 52.6 nM on 5-HT2A receptor (setting [12]); 2430 ± 367 nM at D1 receptor (setting [13]); 242 ± 7.41 nM at D3 receptor [5] (setting [14]). Further, the “Binding Ratios NET/DAT” value in data set [4] was determined as 3.3. Further, in data set [4], the “Binding Ratios SERT/DAT” value is 0.8. For the same compound, the “Discrimination Ratios (DR) [3H]DA reuptake/DAT binding” value in data set [6] is reported as 23.2.

Regarding `Fc1ccc(C(OCCCCN2CCN(c3ccc(Cl)cc3)CC2)c2ccc(F)cc2)cc1` [Compound 34, 1-(4-Chlorophenyl)-4-[4-[bis(4-fluorophenyl)methoxy]butyl]piperazine], on D3 receptor [1], half-maximal inhibition (IC50) required 2.55 nM. For the same compound, at D3 receptor [1] (Table 7), the “antagonistic activity at D3 site” value was “selective and strong antagonistic activity”. In addition, the inhibition constant Ki is over 10 µM at 5-HT2C receptor; over 10000 nM at D2 receptor [2]; over 10000 nM on 5-HT1A receptor; 1150 ± 44.2 nM at 5-HT2A receptor; over 10000 nM at D1 receptor; 340 ± 143 nM at D3 receptor [5]. Further, the “Binding Ratios NET/DAT” value in data set [4] was determined as 7.6. For the same compound, in data set [4], the “Binding Ratios SERT/DAT” value turned out to be 0.7. Besides, the “Discrimination Ratios (DR) [3H]DA reuptake/DAT binding” value in data set [6] is listed as 23.4.

On to `COc1ccccc1N1CCN(CCCCOC(c2ccc(F)cc2)c2ccc(F)cc2)CC1` [Compound 35, 1-(2-Methoxyphenyl)-4-[4-[bis(4-fluorophenyl)methoxy]butyl]piperazine], for which the IC50 against D3 receptor [1] came out at 56.7 nM; in data set [7] it was 1230 ± 24 nM; at D2 receptor [3], 84.4 nM; in [8] it was 176 ± 79 nM; in data set [6], 301 ± 16 nM. The inhibition constant (Ki) at 5-HT2C receptor turned out to be 3 ± 0.0731 µM; on D2 receptor [2], 134 ± 21.7 nM; on 5-HT1A receptor, 34.9 ± 6.7 nM; in data set [4], 26.2 ± 2.5 nM; on 5-HT2A receptor, 698 ± 204 nM; at D1 receptor it was 777 ± 185 nM. Besides, the Ki at D3 receptor [5] turned out to be 118 ± 31.9 nM; in [9], 92 ± 11 nM; in data set [10] it was 255 ± 89 nM. The “binding for 5-HT1A” value at 5-HT1A receptor (Table 7) is recorded as “moderate binding”. Also, the “Binding Ratios NET/DAT” value in data set [4] was 3.5. The “Binding Ratios SERT/DAT” value in data set [4] was found to be 9.7. Also, in the data set on male Swiss-Webster mice, the “Attenuation of cocaine-induced LMA” value was “Attenuation”. Also, the “Discrimination Ratios (DR) [3H]DA reuptake/DAT binding” value in data set [6] came to 11.5.

For `O=C(c1ccccc1)N1CCN(CCCCOC(c2ccc(F)cc2)c2ccc(F)cc2)CC1` [Compound 40, 1-Benzoyl-4-[1-[bis(4-fluorophenyl)methoxy]-4-butyl]piperazine], the IC50 was 222 nM against D3 receptor [1]; 2170 ± 370 nM in [7]; 183 nM at D2 receptor [3]; 32 ± 10 nM in data set [8]; 640 ± 240 nM in data set [6]. For the same compound, the Ki on 5-HT2C receptor (Table 7, rat receptors, [3H]mesulergine, read-out: 5-HT2C Affinity Ki) was determined as 4.64 ± 0.586 µM; on D2 receptor [2] (setting [11]), 95.5 ± 19.7 nM; at 5-HT1A receptor, 1560 ± 271 nM; in data set [4] it was 19.7 ± 2.5 nM; on 5-HT2A receptor (setting [12]), 4800 ± 2090 nM; at D1 receptor (setting [13]), 6640 ± 313 nM. In addition, the results for the Ki (on D3 receptor [5] (setting [14]); in [9]; in [10]) were 119 ± 49.8 nM, 365 ± 69 nM and 87 ± 43 nM, respectively. For the same compound, the “Binding Ratios NET/DAT” value in [4] is listed as 18.5. For the same compound, the “Binding Ratios SERT/DAT” value in data set [4] is 4.4. Also, the “Discrimination Ratios (DR) [3H]DA reuptake/DAT binding” value in [6] is 32.5.
